In the assay the target is T1, human NOX4 (Homo sapiens, UniProt Q9NPH5).
T1 construct: The full-length human NOX4 (NM_016931.3) transcript was cloned; expressed in transfected cells
T1 sequence (Q9NPH5 1-578): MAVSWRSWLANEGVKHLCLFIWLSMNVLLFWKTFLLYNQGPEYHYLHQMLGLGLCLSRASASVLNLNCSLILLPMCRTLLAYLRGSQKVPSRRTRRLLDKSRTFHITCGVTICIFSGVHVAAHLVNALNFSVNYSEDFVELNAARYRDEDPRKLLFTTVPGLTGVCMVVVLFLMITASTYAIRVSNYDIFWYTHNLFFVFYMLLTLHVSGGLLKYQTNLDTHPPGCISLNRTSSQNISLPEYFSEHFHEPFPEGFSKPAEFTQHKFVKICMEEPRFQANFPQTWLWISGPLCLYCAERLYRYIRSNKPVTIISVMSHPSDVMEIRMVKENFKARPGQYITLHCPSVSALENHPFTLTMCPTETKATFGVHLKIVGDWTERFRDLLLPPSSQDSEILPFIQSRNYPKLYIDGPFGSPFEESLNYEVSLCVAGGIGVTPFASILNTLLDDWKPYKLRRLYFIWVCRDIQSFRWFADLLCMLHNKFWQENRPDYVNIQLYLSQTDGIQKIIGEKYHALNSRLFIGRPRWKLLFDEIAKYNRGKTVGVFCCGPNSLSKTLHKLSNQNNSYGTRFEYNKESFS
T1 sequence (P13498 1-195 partner): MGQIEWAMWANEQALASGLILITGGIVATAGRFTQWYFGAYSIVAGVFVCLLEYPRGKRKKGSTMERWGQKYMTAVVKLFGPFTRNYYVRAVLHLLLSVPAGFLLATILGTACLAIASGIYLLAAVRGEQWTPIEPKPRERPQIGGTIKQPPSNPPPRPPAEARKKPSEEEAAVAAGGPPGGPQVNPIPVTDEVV
Kind of assay: Amplex Red activity assay (cellular H2O2 formation in hNOX4 T-REx-293 cells). The assay is classed as cell-based. The following applies: tet-induced 24 h, extracellular H2O2 by Amplex Red, 60 min 25° C., geometric mean if determined several times. As for the experimental part: The nucleotide sequence and the amino acid sequence for the human NOX4 (Entrez Gene ID 50507) is known in the art and are published. The potency and efficacy of the compounds of Formula (I) are assessed for their potential to inhibit the formation of ROS in a cellular assay.
The full-length human NOX4 (NM_016931.3) transcript was cloned into the pDONR™221 vector (Life Technologies™) in order to generate, by site-specific integration according to the recommendation of the manufacturer (Life Technologies™), a recombinant pJTI™ R4 DEST CMV-TO vector containing the NOX4 coding information controlled by tetracycline (tet) responsive tet-on cytomegalovirus promoter (hNOX4 pDEST).
Modified human embryonic kidney cells overexpressing a tet receptor (Jump-In™ T-REx™ HEK293; Life Technologies™) were transfected with the NOX4-containing tet-on vector (hNOX4 pDEST) to generate a stable recombinant cell pool (hNOX4 T-REx-293). hNOX4 T-REx-293 cells were cultured in DMEM containing 4.5 g/L glucose supplemented with 10% fetal calf serum, penicillin (100 U/mL), streptomycin (100 μg/mL), geneticin (1 mg/mL), and blasticidin (5 μg/mL) at 37° C. in air with 5% CO2. Human Nox4 expression was induced with tet (1 μg/mL) for 24 h and extracellular H2O2 was quantified using the Amplex Red reagent (Life Technologies™).
Compounds were prepared as 10 mM stock solution in DMSO vehicle, then diluted in 384-well plates using DMSO followed by a transfer of the dilutions into the assay plate. As a control, diphenylene iodonium was included at a final concentration of 10 μM. Compounds were tested at 10 concentrations in the range from 50 μM highest to 100 nM lowest.
Cellular H2O2 formation was measured using the Amplex Red reagent. […] Cells were seeded into 384-well clear bottom plates at a density of 20 000 cells per well in presence or absence of compounds. […] All wells contained 1.25% of DMSO. The plates were kept at 25° C. for 60 min. The amount of produced resorufin was detected with the Synergy™ Mx microplate reader (BioTek) with excitation and emission wavelengths set to 550 nm and 600 nm, respectively. Fluorescence was measured for each well and the fluorescence at 600 nm wavelength was compared to the fluorescence of the vehicle in place of compound. Inhibitory activities of example compounds were determined by calculating the IC50 value (the concentration of compound needed to inhibit 50% of the enzyme activity). The calculated IC50 values may fluctuate depending on the daily cellular assay performance. Fluctuations of this kind are known to those skilled in the art.

The term IC50 denotes the midpoint of a concentration-inhibition curve. In the case of `O=C(Nc1ccc2oc(N3CCCC4(CCO4)C3)nc2c1)c1ccc2c(c1)CCO2` (stereo not shown) [Example 25, 2,3-Dihydro-benzofuran-5-carboxylic acid [2-(1-oxa-6-aza-spiro[3.5]non-6-yl)-benzooxazol-5-yl]-amide], the IC50 worked out at 804 nM.

For `O=C(Nc1ccc2oc(N3CCCCC34COC4)nc2c1)c1ccc2c(c1)CCO2` [Example 26, 2,3-Dihydro-benzofuran-5-carboxylic acid [2-(2-oxa-5-aza-spiro[3.5]non-5-yl)-benzooxazol-5-yl]-amide], the half-inhibitory concentration (IC50) was found to be 1490 nM.

For `O=C(Nc1ccc2oc(N3CCC4(CCO4)CC3)nc2c1)c1ccc2c(c1)CCO2` [Example 27, 2,3-Dihydro-benzofuran-5-carboxylic acid [2-(1-oxa-7-aza-spiro[3.5]non-7-yl)-benzooxazol-5-yl]-amide], the IC50 came to 729 nM. The figure for `O=C(Nc1ccc2oc(N3CCC4(CCCO4)CC3)nc2c1)c1ccc2c(c1)CCO2` [Example 29, 2,3-Dihydro-benzofuran-5-carboxylic acid [2-(1-oxa-8-aza-spiro[4.5]dec-8-yl)-benzooxazol-5-yl]-amide] is 541 nM; for `O=C(Nc1ccc2oc(N3CC4(CCOCC4)C3)nc2c1)c1ccc2c(c1)CCO2` [Example 30, 2,3-Dihydro-benzofuran-5-carboxylic acid [2-(7-oxa-2-aza-spiro[3.5]non-2-yl)-benzooxazol-5-yl]-amide] it is 1230 nM. On to `O=C(Nc1ccc2oc(N3CC4(CCCO4)C3)nc2c1)c1ccc2c(c1)CCO2` [Example 31, 2,3-Dihydro-benzofuran-5-carboxylic acid [2-(5-oxa-2-aza-spiro[3.4]oct-2-yl)-benzooxazol-5-yl]-amide], for which the IC50 was found to be 2170 nM. The figure for `O=C(Nc1ccc2oc(N3CC(N4CCC(O)CC4)C3)nc2c1)c1ccc2c(c1)CCO2` [Example 32, 2,3-Dihydro-benzofuran-5-carboxylic acid {2-[3-(4-hydroxy-piperidin-1-yl)-azetidin-1-yl]-benzooxazol-5-yl}-amide] is 2410 nM. Turning to `CN1CCCC2(C1)CN(c1nc3cc(NC(=O)c4ccc5c(c4)CCO5)ccc3o1)C2` [Example 33, 2,3-Dihydro-benzofuran-5-carboxylic acid [2-(6-methyl-2,6-diaza-spiro[3.5]non-2-yl)-benzooxazol-5-yl]-amide], the IC50 amounted to 2140 nM. The figure for `O=C(Nc1ccc2oc(N3CC4(CCCCO4)C3)nc2c1)c1ccc2c(c1)CCO2` [Example 34, 2,3-Dihydro-benzofuran-5-carboxylic acid [2-(5-oxa-2-aza-spiro[3.5]non-2-yl)-benzooxazol-5-yl]-amide] is 1220 nM. In the case of `O=C(Nc1ccc2oc(N3CCC34CCC4)nc2c1)c1ccc2c(c1)CCO2` [Example 35, 2,3-Dihydro-benzofuran-5-carboxylic acid [2-(1-aza-spiro[3.3]hept-1-yl)-benzooxazol-5-yl]-amide], the IC50 is 379 nM. For `O=C(Nc1ccc2oc(N3CCC34CCOCC4)nc2c1)c1ccc2c(c1)CCO2` [Example 36, 2,3-Dihydro-benzofuran-5-carboxylic acid [2-(7-oxa-1-aza-spiro[3.5]non-1-yl)-benzooxazol-5-yl]-amide], the IC50 was 404 nM. The figure for `CC(C)(C)OC(=O)C1CN(c2nc3cc(NC(=O)c4ccc5c(c4)CCO5)ccc3o2)C1` [Example 37, 1-{5-[(2,3-Dihydro-benzofuran-5-carbonyl)-amino]-benzooxazol-2-yl}-azetidine-3-carboxylic acid tert-butyl ester] is 841 nM. As for `O=C(Nc1ccc2oc(N3CCCC3=O)nc2c1)c1ccc2c(c1)CCO2` [Example 38, 2,3-Dihydro-benzofuran-5-carboxylic acid [2-(2-oxo-pyrrolidin-1-yl)-benzooxazol-5-yl]-amide], the 50% inhibitory concentration (IC50) turned out to be 1750 nM. The figure for `O=C(Nc1ccc2oc(N3CCS(=O)(=O)CC3)nc2c1)c1ccc2c(c1)OCCO2` [Example 39, 2,3-Dihydro-benzo[1,4]dioxine-6-carboxylic acid [2-(1,1-dioxo-thiomorpholin-4-yl)-benzooxazol-5-yl]-amide] is 444 nM. The figure for `O=C(Nc1ccc2oc(N3CCS(=O)(=O)CC3)nc2c1)c1ccc2c(c1)CCCO2` [Example 40, Chroman-6-carboxylic acid [2-(1,1-dioxo-thiomorpholin-4-yl)-benzooxazol-5-yl]-amide] is 812 nM; for `CN1CCOc2ccc(C(=O)Nc3ccc4oc(N5CCS(=O)(=O)CC5)nc4c3)cc21` [Example 41, 4-Methyl-3,4-dihydro-2H-benzo[1,4]oxazine-6-carboxylic acid [2-(1,1-dioxo-thiomorpholin-4-yl)-benzooxazol-5-yl]-amide] it is 2520 nM; for `O=C(Nc1ccc2oc(N3CCC[C@@H](O)C3)nc2c1)c1ccc2c(c1)CCO2` [Example 42, (R)—N-(2-(3-hydroxypiperidin-1-yl)benzo[d]oxazol-5-yl)-2,3-dihydrobenzofuran-5-carboxamide] it is 566 nM. The figure for `O=C(Nc1ccc2oc(N3CCC[C@H](O)C3)nc2c1)c1ccc2c(c1)CCO2` [Example 43, 2,3-Dihydro-benzofuran-5-carboxylic acid [2-((S)-3-hydroxy-piperidin-1-yl)-benzooxazol-5-yl]-amide] is 541 nM; for `CC(C)OC1CN(c2nc3cc(NC(=O)c4ccc5c(c4)CCO5)ccc3o2)C1` [Example 44, 2,3-Dihydro-benzofuran-5-carboxylic acid [2-(3-isopropoxy-azetidin-1-yl)-benzooxazol-5-yl]-amide] it is 1140 nM. For the compound `O=C(Nc1ccc2oc(N3CC[C@@H](O)C3)nc2c1)c1ccc2c(c1)CCO2` [Example 45, 2,3-Dihydro-benzofuran-5-carboxylic acid [2-((R)-3-hydroxy-pyrrolidin-1-yl)-benzooxazol-5-yl]-amide], the concentration for half-maximal inhibition (IC50) worked out at 573 nM. In the case of `O=C(Nc1ccc2oc(N3CC[C@H](O)C3)nc2c1)c1ccc2c(c1)CCO2` [Example 46, 2,3-Dihydro-benzofuran-5-carboxylic acid [2-((S)-3-hydroxy-pyirolidin-1-yl)-benzooxazol-5-yl]-amide], the IC50 was found to be 570 nM. The figure for `O=C(Nc1ccc2oc(N3CC(O)C3)nc2c1)c1ccc2c(c1)CCO2` [Example 47, 2,3-Dihydro-benzofuran-5-carboxylic acid [2-(3-hydroxy-azetidin-1-yl)-benzooxazol-5-yl]-amide] is 657 nM.

For `O=C(Nc1ccc2oc(N3CCC(O)CC3)nc2c1)c1ccc2c(c1)CCO2` [Example 48, 2,3-Dihydro-benzofuran-5-carboxylic acid [2-(4-hydroxy-piperidin-1-yl)-benzooxazol-5-yl]-amide], the half-inhibitory concentration (IC50) worked out at 448 nM.

Regarding `O=C(Nc1ccc2oc(N3CC(c4ccccc4)C3)nc2c1)c1ccc2c(c1)CCO2` [Example 49, 2,3-Dihydro-benzofuran-5-carboxylic acid [2-(3-phenyl-azetidin-1-yl)-benzooxazol-5-yl]-amide], the 50% inhibitory concentration (IC50) was 1230 nM. For `O=C(Nc1ccc2oc(N3CCC4(CC3)COC4)nc2c1)c1ccc2c(c1)CCO2` [Example 50, 2,3-Dihydro-benzofuran-5-carboxylic acid [2-(2-oxa-7-aza-spiro[3.5]non-7-yl)-benzooxazol-5-yl]-amide], the half-inhibitory concentration (IC50) came to 451 nM.

Values taken from patent US11136317B2, “NADPH oxidase 4 inhibitors” (ACTELION PHARMACEUTICALS LTD, priority 2015, dated 2021).
